From US8524917B2, “6-substituted indole-3-carboxylic acid amide compounds having sphingosine-1-phosphate (S1P) receptor antagonist biological activity” (Allergan, Inc., priority 2007, dated 2013)
Read-outs that look alike come from different tables or passages of the source.

Columns and labels:
[1] = system: perfused porcine eyes; conditions: by altering paracellular permeability, IOVS 45, 2263, 2004; cited from earlier work
[2] = target: human S1P3 receptor (Homo sapiens (Human), UniProt Q99500); assay: Activation or block of activation of human S1P3 receptor, Ca+2 FLIPR assay; format: cell-based; conditions: for IC50: read-out: S1P3 IC50
In short: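 T24 cells stably expressing human S1P3, grown in charcoal-treated FBS, dye-loaded and read on FLIPR for calcium after ligand addition in HBSS/20 mM HEPES (1 s readings for 75 s, then every 10 s for 2.5 min). Agonist or antagonist mode; S1P positive control in 4 mg/ml fatty-acid-free BSA. IC50 by Levenberg–Marquardt regression.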

[3] = T24 cells stably expressing the human S1P3 receptor, FLIPR Ca+2 response, 0.61 nM to 10,000 nM
[4] = T24 cells stably expressing the human S1P3 receptor, value in brackets

Sequence of human S1P3 receptor (Q99500 whole entry): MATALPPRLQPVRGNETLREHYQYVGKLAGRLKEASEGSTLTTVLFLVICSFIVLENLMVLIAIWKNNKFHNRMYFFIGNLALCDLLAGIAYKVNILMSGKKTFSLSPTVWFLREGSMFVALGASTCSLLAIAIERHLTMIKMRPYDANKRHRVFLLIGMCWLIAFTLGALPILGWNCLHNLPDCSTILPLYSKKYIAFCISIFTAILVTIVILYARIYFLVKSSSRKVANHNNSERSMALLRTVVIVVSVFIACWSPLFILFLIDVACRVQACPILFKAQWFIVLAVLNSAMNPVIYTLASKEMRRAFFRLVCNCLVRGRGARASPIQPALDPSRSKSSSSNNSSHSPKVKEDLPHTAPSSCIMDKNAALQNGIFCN

Row | SMILES | decrease of outflow facility [1] | IC50 [2, 3] | S1P3 (% inh) [2, 4] | S1P3 (% inh) [2] | IC50 [2]
1 | CCCCCCCCCCCCC/C=C/[C@@H](O)[C@@H](N)COP(=O)(O)O [Compound S1P, Sphingosine-1-Phosphate] | > 30% | – | – | – | –
2 | CC(C)c1c(C(=O)NCc2ccc(F)c(F)c2)c2ccc(NC3CCCC3)cc2n1Cc1ccccc1 [Compound 130, 1-Benzyl-6-(cyclopentylamino)-N-(3,4-difluorobenzyl)-2-isopropyl-1H-indole-3-carboxamide] | – | 44 nM | 99% | – | –
3 | CCOC(=O)c1ccc2c(C(=O)NCc3ccc(F)cc3)c(C(C)C)n(Cc3ccccc3)c2c1 | – | 43 nM | 99% | – | –
4 | CC(C)Oc1ccc2c(C(=O)NCc3ccc(F)c(F)c3)c(CO)n(Cc3ccccn3)c2c1 [Compound 106, N-(3,4-Difluorobenzyl)-2-(hydroxymethyl)-6-isopropoxy-1-(pyridin-2-ylmethyl)-1H-indole-3-carboxamide] | – | 689 nM | 96% | – | –
5 | CC(C)c1c(C(=O)NCc2ccc(F)c(F)c2)c2ccc(OCc3ccccc3)cc2n1Cc1ccccc1 [Compound 15, 1-Benzyl-6-(benzyloxy)-N-(3,4-difluorobenzyl)-2-isopropyl-1H-indole-3-carboxamide] | – | – | – | 260 nM (100) % | 260 nM
6 | CC(C)c1c(C(=O)NCc2ccc(F)c(F)c2)c2ccc(CN(C)C)cc2n1Cc1ccccc1 | – | 990 nM | 98% | – | –
